ΔTm and Kd data for 35 compounds are collected here from publication PMC9486809, “Exploring the Surface of the Ectodomain of the PD-L1 Immune Checkpoint with Small-Molecule Fragments” (ACS Chemical Biology, 2022).

Structures are written as SMILES. Read-outs that look alike come from different tables or passages of the source.

In experiment [1] the target is T1, PD-L1 (Homo sapiens, UniProt Q9NZQ7). In words: biochemical. Set-up: gene CD274. As to conditions: read-out: DSF (°C). Here is the method:
Fragments were screened in both techniques as singletons. […] The fragments were tested at a final concentration of 0.1 mM. […] DSF hits were defined as fragments, resulting in an increase or decrease in melting point of PD-L1 by at least 0.5 °C. […] Having the library in hand, we carried out screening using differential scanning fluorimetry and 1D NMR techniques. Previously, the fragment-based approach with a large library of compounds (>13 000) was tested on the PD-L1 V1 domain.[33] […] Therefore, instead of using a large fragment library, we assembled a focused library of fragments containing the biphenyl core extracted from known inhibitors. The obtained fragments were decorated with different substituents to test how these variations will affect the binding of biphenyl. The expression and purification protocol relate to work on PD-L1-short published earlier by us. Briefly, Escherichia coli strain BL21 (DE3) was transformed with a pET-21b plasmid carrying the PD-L1-long gene (amino acids 18–239). The bacteria were cultured in LB at 37 °C until OD600 nm of 0.8 when the recombinant protein production was induced with 1 mM IPTG. The protein expression was carried out at 37 °C for 5 h. Next, bacteria cells were harvested, and the pellet was frozen at −20 °C. […]

The target in experiment [2] is T1, PD-L1. In words: 1H NMR; KD stated (data not shown). It counts as binding. Set-up: gene CD274; ectodomain, PD-L1-long (amino acids 18–239). The following applies: cited from earlier work.
Experiment [3] has as its target T1, PD-L1. Description: biochemical. Set-up: gene CD274; ectodomain, PD-L1-long (amino acids 18–239); Differential scanning fluorimetry, melting temperature shift of PD-L1 ectodomain (PD-L1-long). The following applies: read-out: DSF (°C). On the procedure:
Fragments were screened in both techniques as singletons. […] The fragments were tested at a final concentration of 0.1 mM. […] DSF hits were defined as fragments, resulting in an increase or decrease in melting point of PD-L1 by at least 0.5 °C. […] Having the library in hand, we carried out screening using differential scanning fluorimetry and 1D NMR techniques. Previously, the fragment-based approach with a large library of compounds (>13 000) was tested on the PD-L1 V1 domain.[33] […] Therefore, instead of using a large fragment library, we assembled a focused library of fragments containing the biphenyl core extracted from known inhibitors. The obtained fragments were decorated with different substituents to test how these variations will affect the binding of biphenyl. The expression and purification protocol relate to work on PD-L1-short published earlier by us. Briefly, Escherichia coli strain BL21 (DE3) was transformed with a pET-21b plasmid carrying the PD-L1-long gene (amino acids 18–239). The bacteria were cultured in LB at 37 °C until OD600 nm of 0.8 when the recombinant protein production was induced with 1 mM IPTG. The protein expression was carried out at 37 °C for 5 h. Next, bacteria cells were harvested, and the pellet was frozen at −20 °C. […] Inclusion bodies were collected by centrifugation, suspended in 1× PBS, and then sonicated to finally collect them again by centrifugation. Then, the inclusion bodies were washed twice with 50 mM Tris-HCl, pH 8.0, containing 200 mM NaCl, 10 mM EDTA, 10 mM 2- mercaptoethanol, and 0.5% Triton X-100, followed by a single wash with the same buffer without Triton X-100.

Experiment [4] deals with T1, PD-L1. In words: 1H-15N HMQC NMR, w-AIDA-NMR KD, 1H NMR. It counts as binding. Set-up: gene CD274; ectodomain, PD-L1-long (amino acids 18–239); PD-L1-short in 1H-15N HMQC.
Experiment [5] has as its target T1, PD-L1. Description: w-AIDA-NMR KD, 1H-15N HMQC NMR, 1H NMR, DSF. It counts as binding. Also on record: gene CD274; ectodomain, PD-L1-long (amino acids 18–239); PD-L1-short in 1H-15N HMQC.

T1 sequence (Q9NZQ7 18-239): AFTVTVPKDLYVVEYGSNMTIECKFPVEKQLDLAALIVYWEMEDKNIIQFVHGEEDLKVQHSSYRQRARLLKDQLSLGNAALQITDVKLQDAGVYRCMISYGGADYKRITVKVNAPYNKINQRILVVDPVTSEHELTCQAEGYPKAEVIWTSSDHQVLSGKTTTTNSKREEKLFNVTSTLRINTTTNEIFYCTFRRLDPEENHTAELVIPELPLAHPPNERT

For `Cc1c(COc2cc(OCc3cccc(C#N)c3)c(CN3C[C@H](O)C[C@@H]3C(=O)O)cc2Cl)cccc1-c1ccc2c(c1)OCCO2` [BMS-1166], at PD-L1 [1], the ΔTm at 100 µM was determined as 2.7 °C. The term Kd denotes the free concentration of one partner at which half of the binding sites on the other are occupied at equilibrium, for simple one-to-one binding. Turning to `CN1CCOc2cc(C#N)ccc21` [STD4], on PD-L1 [2], the Kd was 2.21 mM. `COC(=O)c1cncc(-c2cccc(CO)c2C)c1` [TAH2]: on PD-L1 [3], the ΔTm at 100 µM worked out at 0.1 °C. Turning to `Cc1c(CO)cccc1-c1cccc(CO)c1Br` [TAH3], the ΔTm at 100 µM at PD-L1 [3] came out at 0.3 °C.

Turning to `OCc1cccc(-c2ccc3c(c2)OCCO3)c1Cl` [TAH4], the Kd at PD-L1 [4] was approximately 40 mM. The ΔTm at 100 µM at PD-L1 [3] came out at 0.5 °C.

On to `OCc1cccc(-c2cccnc2)c1Cl` [TAH5], for which the ΔTm at 100 µM at PD-L1 [3] is 0.3 °C. With `Nc1c(CO)cccc1-c1ccc2c(c1)OCCO2` [TAH6], the ΔTm at 100 µM on PD-L1 [3] was 0.3 °C. For `Nc1c(C(=O)O)cccc1-c1ccccc1` [TAH7], the ΔTm at 100 µM at PD-L1 [3] worked out at 0.3 °C. In the case of `COC(=O)c1cccc(-c2ccccc2)c1N` [TAH8], the ΔTm at 100 µM on PD-L1 [3] is 0.3 °C. As for `COC(=O)c1cccc(-c2ccccc2)c1Br` [TAH9], on PD-L1 [3], the ΔTm at 100 µM was found to be 0.5 °C. On the same count and under the same terms, as for `Oc1cccc(-c2cccc(Br)c2)c1` [TAH11], the figure is 0.1 °C; as for `COc1cccc(-c2cccc(O)c2)c1` [TAH14], 0.5 °C. Take `Cc1c(N)cccc1-c1ccc2c(c1)OCCO2` [TAH16]: the ΔTm at 100 µM at PD-L1 [3] was determined as 0.5 °C. For `Cc1c(-c2ccc3c(c2)OCCO3)cccc1N1CCCCC1=O` [TAH17], the ΔTm at 100 µM at PD-L1 [3] came out at 0.3 °C.

Take `Cc1c(N)cccc1-c1ccccn1` [TAH28]: at PD-L1 [3], the ΔTm at 100 µM was 0.3 °C. On the same count and under the same terms, the figure for `Cc1c(N)cccc1-c1ccc(C#N)cc1` [TAH29] is 0.1 °C; for `O=C1CCc2cc(-c3ccc4c(c3)OCCO4)ccc21` [TAH30] it is 0.1 °C; for `Cc1c(-c2cccc([N+](=O)[O-])c2C)cccc1[N+](=O)[O-]` [TAH34] it is 0.3 °C. Regarding `Cc1c(N)cccc1-c1cccc(N)c1C` [TAH35], the ΔTm at 100 µM on PD-L1 [3] was -1.2 °C. The compound also showed a Kd on PD-L1 [5] of approximately 20 mM.

Consider `Cc1c(C#N)cccc1-c1cccc(C#N)c1C` [TAH37], for which the ΔTm at 100 µM on PD-L1 [3] was determined as 0.1 °C. Take `Cc1c(/C=C/C#N)cccc1-c1ccc2c(c1)OCCO2` [TAH38]: on PD-L1 [3], the ΔTm at 100 µM is 0.9 °C. Same read-out and setting: as for `Cc1c(N)cccc1-c1ccccc1` [TAH39], the figure is 0.3 °C. Take `O=C(O)c1cccc(-c2ccccc2)c1Br` [TAH40]: the ΔTm at 100 µM on PD-L1 [3] was determined as 0.3 °C. For `Oc1cccc(-c2cccc(F)c2)c1` [TAH41], the ΔTm at 100 µM at PD-L1 [3] stood at 1.1 °C.

Consider `Nc1c(Br)cccc1-c1ccc(CO)cc1` [TAH44], for which the ΔTm at 100 µM on PD-L1 [3] worked out at 0.5 °C. On the same count and under the same terms, the figure for `Nc1c(-c2ccc3c(c2)OCCO3)cccc1-c1ccc2c(c1)OCCO2` [TAH46] is 0.5 °C; for `Cc1c(-c2ccc(CO)cc2)cccc1-c1ccc(CO)cc1` [TAH50] it is 0.3 °C; for `Cc1ccc(-c2ccc3c(c2)OCCO3)c(N)c1` [TAH53] it is 0.7 °C. `Cc1cccc(N)c1-c1ccc2c(c1)OCCO2` [TAH55]: on PD-L1 [3], the ΔTm at 100 µM was 0.3 °C. In the case of `CNc1cccc(-c2ccc3c(c2)OCCO3)c1` [TAH56], the ΔTm at 100 µM at PD-L1 [3] was 0.1 °C.

In the case of `Nc1c(CO)cccc1-c1ccncc1` [TAH57], the ΔTm at 100 µM at PD-L1 [3] came to 0.1 °C. Same read-out and setting: as for `COc1ccc(-c2cccc(CO)c2N)cc1` [TAH58], the figure is 0.1 °C. For `Nc1c(Br)cccc1-c1ccc2c(c1)OCCO2` [TAH59], the ΔTm at 100 µM at PD-L1 [3] turned out to be 0.3 °C. Take `Cc1cc(Br)cc(-c2ccc3c(c2)OCCO3)c1` [TAH60]: at PD-L1 [3], the ΔTm at 100 µM was determined as 0.3 °C.

On to `Cc1c(CO)cccc1-c1cccc2c1OCCN2C` [TAH61], for which the ΔTm at 100 µM on PD-L1 [3] was -1.1 °C.
